US20090318690A1 (priority 2006, published 2009)
Counter-ions that a name gives are not always drawn.

Assays:
acetylcholine esterase = biological target: T1, acetylcholine esterase (Rattus norvegicus, UniProt P37136); assay: Acetylcholine esterase inhibitory activity (Ellman method); type: biochemical; conditions: supernatant of male Wistar rat cerebral homogenate; acetylthiocholine/DTNB, absorbance 412 nm; read-out: Acetylcholine esterase inhibition (IC50)
T1 construct: a centrifugation supernatant of a male Wistar rat cerebral homogenate as an acetylcholine esterase source; from tissue; host or cells: male Wistar rat cerebrum, Triton X-100 homogenate supernatant
T1 sequence (P37136 32-614): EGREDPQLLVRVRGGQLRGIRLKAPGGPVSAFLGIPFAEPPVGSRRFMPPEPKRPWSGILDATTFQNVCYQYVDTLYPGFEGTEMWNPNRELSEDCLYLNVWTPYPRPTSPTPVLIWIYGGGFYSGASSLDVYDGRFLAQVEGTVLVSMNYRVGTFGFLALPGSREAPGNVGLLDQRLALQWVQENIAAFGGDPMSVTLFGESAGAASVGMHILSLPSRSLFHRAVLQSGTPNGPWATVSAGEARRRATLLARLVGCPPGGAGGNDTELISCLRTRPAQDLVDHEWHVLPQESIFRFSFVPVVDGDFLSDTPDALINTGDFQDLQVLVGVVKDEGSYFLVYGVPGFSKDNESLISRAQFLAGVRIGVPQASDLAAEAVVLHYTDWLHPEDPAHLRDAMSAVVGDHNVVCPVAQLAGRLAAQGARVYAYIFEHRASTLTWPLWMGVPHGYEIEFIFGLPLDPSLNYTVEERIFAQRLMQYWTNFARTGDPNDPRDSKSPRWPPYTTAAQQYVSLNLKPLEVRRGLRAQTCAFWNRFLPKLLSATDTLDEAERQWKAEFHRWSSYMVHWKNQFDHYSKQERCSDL
Experimental: Esterase activity was measured according to the method of Ellman et al. (Biochem. Pharmacol., 1961, 7, 88-95) using a centrifugation supernatant of a male Wistar rat cerebral homogenate as an acetylcholine esterase source. First, a sample dissolved in dimethyl sulfoxide (DMSO) (10 mM) was dissolved in water to 30 μM, and eight serial dilutions were prepared at a common ratio of 3 with 30 μM as a highest concentration. Next, 18 times weight of a phosphate buffer [0.1 M phosphate buffer (0.1 M Na2HPO4, prepared from 0.1 M KH2PO4; pH 8.0) with 0.5% Triton X-100] was added to the rat cerebrum. The mixture was homogenized and centrifuged at 3000 rpm for five minutes. The supernatant was diluted 30-fold with a phosphate buffer (pH 8.0) and dispensed to a 96-well plate at 165 μL/well. 6 μL of the diluted sample was added, followed by preincubation at room temperature for about 10 minutes. Thereafter, 9 μL of a reaction mixture [10 mM 5,5′-dithiobis(2-nitrobenzoic acid) (DTNB)/0.1 M phosphate buffer (pH 7.0) with 6 μL of 0.15% NaHCO3+90 mM acetylthiocholine iodide/1 μL of H2O+2 μL of 0.1 M phosphate buffer (pH 8.0)] was added and the absorbance (412 nm) of anions (yellow) of 5-thio-2-nitrobenzoic acid generated by reaction of the produced thiocholine with DTNB anions was measured at room temperature. The acetylcholine esterase activity was determined from the change in absorbance between two minutes and four minutes after the start of the reaction. The inhibition rate (%) of the test compound was determined based on the acetylcholine esterase activity when the compound was not added as 100% and the 50% inhibition concentration (IC50) was calculated.

[1] = biological target: T2, serotonin transporter (SERT) (Rattus norvegicus, UniProt P31652); assay: Serotonin transporter binding inhibitory activity ([3H]paroxetine binding, rat cerebral cortex membrane fraction)
T2 construct: The rat cerebral cortex was homogenized in ice-cold 0.32 M sucrose; from tissue; host or cells: rat cerebral cortex membrane fraction
T2 sequence (P31652 whole entry): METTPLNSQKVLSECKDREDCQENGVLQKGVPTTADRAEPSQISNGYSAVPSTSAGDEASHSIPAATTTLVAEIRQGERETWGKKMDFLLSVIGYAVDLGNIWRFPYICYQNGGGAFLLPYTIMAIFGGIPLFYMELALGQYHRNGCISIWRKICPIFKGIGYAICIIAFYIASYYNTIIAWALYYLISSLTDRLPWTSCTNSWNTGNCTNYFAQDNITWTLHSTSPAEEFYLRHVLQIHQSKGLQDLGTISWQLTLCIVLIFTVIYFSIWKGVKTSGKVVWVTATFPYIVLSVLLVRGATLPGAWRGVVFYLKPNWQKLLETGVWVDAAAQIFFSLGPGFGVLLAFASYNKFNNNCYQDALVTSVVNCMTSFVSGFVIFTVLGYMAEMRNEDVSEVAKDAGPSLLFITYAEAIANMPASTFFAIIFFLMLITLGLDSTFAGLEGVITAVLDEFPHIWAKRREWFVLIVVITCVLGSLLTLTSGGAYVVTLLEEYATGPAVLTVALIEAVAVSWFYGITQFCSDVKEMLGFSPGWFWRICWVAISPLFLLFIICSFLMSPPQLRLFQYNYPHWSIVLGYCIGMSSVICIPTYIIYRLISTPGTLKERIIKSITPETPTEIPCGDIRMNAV
Experimental: Affinity of the test substance to a serotonin transporter (SERT) was determined by a test of inhibition of binding of [^3H]paroxetine selectively binding to SERT to a rat cerebral cortex membrane fraction by the test substance. Serotonin reuptake inhibitors are generally known to have SERT binding inhibitory activity. Based on the assumption that the intensity of SERT binding inhibitory activity of the test substance indicates the intensity of reuptake inhibitory activity, affinity of the test substance to SERT was determined and the intensity of the activity was estimated (according to the method described in Marcusson, J.; Eriksson, K; J. Neurochemistry, 1988, 51 (5), 1477).
The rat cerebral cortex was homogenized in ice-cold 0.32 M sucrose. The suspension was centrifuged at 1,000×g for 10 minutes. The resulting supernatant was further centrifuged at 20,000×g for 20 minutes. The resulting precipitate was suspended in 50 mM Tris-HCl (pH 7.4) containing 120 mM NaCl and 5 mM KCl (hereinafter called suspension A) and centrifuged at 20,000×g for 20 minutes. The same operation was repeated once more. The finally obtained precipitate was suspended in a suspension A having a wet weight about 100 times that of the rat cerebral cortex to prepare a membrane fraction which was stored at −80° C. until use.
An incubation mixture (0.5 mL) contained a solution obtained by further diluting the test substance dissolved in DMSO (dimethyl sulfoxide) to a desired concentration (control: only DMSO) 500-fold with purified water (25 μL); a [^3H]paroxetine solution (final concentration: 0.05 nM) as a ligand (25 μL); and the membrane fraction prepared as described above (450 μL). The reaction was started by addition of the membrane fraction, followed by incubation at room temperature for 90 minutes. After the incubation, the mixture was filtered by suction through a GF/B filter using a cell harvester. The filter was washed with 50 mM Tris-HCl (pH 7.4) and then radioactivity of [^3H]paroxetine binding to SERT was measured using a liquid scintillation counter. Binding detected in the presence of 1 or 10 μM fluoxetine was defined as non-specific binding.

SMILES | IC50 (acetylcholine esterase) [nM] | IC50 [1] [nM]
CN(C)Cc1c(OCc2ccc(F)cc2)ccc2c(CCC3CCN(CC4OCCO4)CC3)noc12 [Example 22, N,N-Dimethyl{3-{2-[1-(1,3-dioxolan-2-ylmethyl)piperidin-4-yl]ethyl}-6-(4-fluorobenzyloxy)benz[d]isoxazol-7-yl}methylamine dihydrobromide] | 4.1 | 1.6
CN(C)Cc1c(OCC2CC2)ccc2c(CCC3CCN(Cc4ccccc4)CC3)noc12 [Example 39, N,N-Dimethyl{6-cyclopropylmethoxy-3-[2-(1-benzylpiperidin-4-yl)ethyl]benz[d]isoxazol-7-yl}methylamine dihydrochloride] | 0.4 | 13
CN(C)Cc1c(OCC2CC2)ccc2c(CCC3CCN(CC4(CO)CCCC4)CC3)noc12 [Example 51, {1-{4-{2-[6-Cyclopropylmethoxy-7-(N,N-dimethylaminomethyl)benz[d]isoxazol-3-yl]ethyl}piperidinomethyl}cyclopentyl}methanol dihydrochloride] | 3.6 | 1.9
CNCc1c(OCc2ccc(F)cc2)ccc2c(CCC3CCN(CC4OCCO4)CC3)noc12 [Example 78, N-Methyl{3-{2-[1-(1,3-dioxolan-2-ylmethyl)piperidin-4-yl]ethyl}-6-(4-fluorobenzyloxy)benz[d]isoxazol-7-yl}methylamine dihydrochloride] | 0.7 | 1.1
CN(C)Cc1c(OCC2CC2)ccc2c(CCC3CCN(Cc4c[nH]c5ccc(F)cc45)CC3)noc12 [Example 88, N,N-Dimethyl{6-cyclopropylmethoxy-3-{2-[1-(5-fluoro-1H-indol-3-ylmethyl)piperidin-4-yl]ethyl}benz[d]isoxazol-7-yl}methylamine dihydrochloride] | 7.7 | 5.3
CN(C)Cc1c(OCC2CC2)ccc2c(CCC3CCN(CC4CCCc5sccc54)CC3)noc12 (centres unmarked) [Example 93, N,N-Dimethyl{6-cyclopropylmethoxy-3-{2-[1-(4,5,6,7-tetrahydrobenzo[b]thiophen-4-ylmethyl)piperidin-4-yl]ethyl}benz[d]isoxazol-7-yl}methylamine dihydrochloride] | 73 | 8.9
N#Cc1ccc(CN2CCC(CCc3noc4c(CN5CCC5)c(OCC5CC5)ccc34)CC2)s1 [Example 118, 5-{4-{2-[7-(Azetidin-1-ylmethyl)-6-cyclopropylmethoxybenz[d]isoxazol-3-yl]ethyl}piperidinomethyl}thiophene-2-carbonitrile fumarate] | 12 | 10
CN(C)Cc1c(-c2ccccc2)ccc2c(CCC3CCN(Cc4ccccc4)CC3)noc12 [Example 120, N,N-Dimethyl{3-[2-(1-benzylpiperidin-4-yl)ethyl]-6-phenylbenz[d]isoxazol-7-yl}methylamine dihydrochloride] | 1.3 | 0.9
CN(C)Cc1c2ccccc2cc2c(CCC3CCN(Cc4ccc(C#N)s4)CC3)noc12 [Example 151, 5-{4-{2-[9-(N,N-Dimethylaminomethyl)naphtho[2,3-d]isoxazol-3-yl]ethyl}piperidinomethyl}thiophene-2-carbonitrile dihydrochloride] | 33 | 54
CNCc1c2ccccc2cc2c(CCC3CCN(Cc4ccc(C#N)s4)CC3)noc12 [Example 152, 5-{4-{2-[9-(N-Methylaminomethyl)naphtho[2,3-d]isoxazol-3-yl]ethyl}piperidinomethyl}thiophene-2-carbonitrile dihydrochloride] | 4.9 | 10
CN(C)Cc1c(OCc2ccc(C#N)cc2)ccc2c(CCC3CCN(Cc4ccccc4)CC3)noc12 [Example 153, 4-{3-[2-(1-Benzylpiperidin-4-yl)ethyl]-7-(N,N-dimethylaminomethyl)benz[d]isoxazol-6-yloxymethyl}benzonitrile dihydrochloride] | 0.4 | 0.3
CN(C)Cc1c(OCc2ccc(C#N)cc2)ccc2c(CCC3CCN(CC4OCCO4)CC3)noc12 [Example 154, 4-{7-(N,N-Dimethylaminomethyl)-3-{2-[1-(1,3-dioxolan-2-ylmethyl)piperidin-4-yl]ethyl}benz[d]isoxazol-6-yloxymethyl}benzonitrile fumarate] | 3 | 1
CN(C)Cc1c(OCC2CC2)ccc2c(CCC3CCN(Cc4ccc(C#N)s4)CC3)noc12 [Example 155, 5-{4-{2-[6-Cyclopropylmethoxy-7-(N,N-dimethylaminomethyl)benz[d]isoxazol-3-yl]ethyl}piperidinomethyl}thiophene-2-carbonitrile dihydrochloride] | 5 | 5.3
CN(C)Cc1ccc2c(CCC3CCN(Cc4ccccc4)CC3)noc2c1OCC1CC1 [Example 178, N,N-Dimethyl{3-[2-(1-benzylpiperidin-4-yl)ethyl]-7-cyclopropylmethoxybenz[d]isoxazol-6-yl}methylamine dihydrochloride] | 4.1 | 62
CN(C)Cc1c(N2CCCCC2)ccc2c(CCC3CCN(Cc4ccc(C#N)s4)CC3)noc12 [Example 210, 5-{4-{2-[7-(N,N-Dimethylaminomethyl)-6-piperidinobenz[d]isoxazol-3-yl]ethyl}piperidinomethyl}thiophene-2-carbonitrile dihydrochloride] | 2.4 | 12
CN(C)Cc1c(N2CCOCC2)ccc2c(CCC3CCN(Cc4ccc(C#N)s4)CC3)noc12 [Example 213, 5-{4-{2-[7-(N,N-Dimethylaminomethyl)-6-morpholinobenz[d]isoxazol-3-yl]ethyl}piperidinomethyl}thiophene-2-carbonitrile dihydrochloride] | 3 | 19
